Measured values as given in patent US20180245049A1, “METHOD FOR INDUCING DIFFERENTIATION OF STEM CELLS” (STICHTING KATHOLIEKE UNIVERSITEIT, priority 2015, published 2018).

Experiments:
[1] = test system: hMSCs; experiment: Live/dead assay (calcein-AM and MTT) of gel-encapsulated cells; assay type: cell-based, human; conditions: live/dead assay after 48 h and 96 h of culture, 50 nM
Protocol: Cell Culture. Human Mesenchymal Stem Cells (hMSCs) were obtained from Lonza, Inc. (Switzerland). Cells were then cultured in α-MEM medium (lnvitrogen) supplemented with 10% fetal bovine serum (FBS), 1% penicillin/streptomycin and incubated in a humidified atmosphere containing 5% (v/v) CO2 at 37° C. For the encapsulation of cells in the gels, first, the cell pellets were obtained by centrifugation. Then 500 μL of the cold polymer solution (˜10° C.) was added directly to the pellet, followed by a gentle pipetting up and down 3-4 times to ensure a homogeneous mixture that was directly put onto a cover slip in a 6-well plate (also kept cold). Thereafter, the solution was sandwiched between two cover slips and the well plate was transferred to a 37° C. incubator. The volume of the suspension was chosen (500 μL) in order to obtain hydrogel thickness in the range of 3 mm. […] To evaluate proliferation, total double-stranded DNA content was determined by using the PicoGreen assay as previously reported.
MTT Assay. As described in literature, briefly, cell viability was determined by the 3-(4,5-dimethylthiazol-2-yl)-2,5-diphenyltetrazolium bromide (MTT) assay and the data are presented as a percentage of control viability.
Live/Dead Staining. Cell viability was determined with the live/dead viability/cytotoxicity kit (Molecular Probes), according to the manufacturer's protocol.

[2] = test system: hMSCs; experiment: Lineage commitment and differentiation of gel-encapsulated hMSCs in bipotential differentiation medium (STRO-1, Osterix, Oil-red O staining); assay type: cell-based, human
Protocol: Cell Culture. Human Mesenchymal Stem Cells (hMSCs) were obtained from Lonza, Inc. (Switzerland). Cells were then cultured in α-MEM medium (lnvitrogen) supplemented with 10% fetal bovine serum (FBS), 1% penicillin/streptomycin and incubated in a humidified atmosphere containing 5% (v/v) CO2 at 37° C. For the encapsulation of cells in the gels, first, the cell pellets were obtained by centrifugation. Then 500 μL of the cold polymer solution (˜10° C.) was added directly to the pellet, followed by a gentle pipetting up and down 3-4 times to ensure a homogeneous mixture that was directly put onto a cover slip in a 6-well plate (also kept cold). Thereafter, the solution was sandwiched between two cover slips and the well plate was transferred to a 37° C. incubator. The volume of the suspension was chosen (500 μL) in order to obtain hydrogel thickness in the range of 3 mm. […] Afterwards, the gel becomes stiffer with time and attains the final stiffness in 2-3 minutes. This favors the supporting of cells in 3D rather than the cells settling at the bottom. After gel formation, the two cover slips were removed and α-MEM medium (without serum) was added. All cell culture experiments were carried out without any serum in the medium for the first 6 h of culture. Then, α-MEM medium with 10% serum was added. All cells were used at low passage numbers (≤passage 4), were subconfluently cultured and were seeded at 10^6 cells/mL for the purpose of the experiments and in order to avoid cell-cell contacts. The lineage commitment and differentiation of the gel encapsulated hMSCs after 96 h and 3 weeks of culture, respectively, were investigated with bipotential differentiation medium (1:1 v/v osteogenic and adipogenic media, Lonza). For all the experiments, a non-functionalized soft polymer gel (cell culture in growth medium) served as control. […] The pharmacological agents used were 50 μM Blebbistatin (EMD Biosciences-Calbiochem), 1 μM cytochalasin D (Sigma) and 50 nM Taxol (Abcam). The hMSCs were exposed to each pharmacological agent for 1 h, 24 h and 72 h, respectively, after seeding on a modified polymer. For antibody inhibition studies, cells were preincubated with 5 ng/mL anti-α1, 2, 3 and 5-β1, 2 (all from Santa Cruz Biotechnology). For competition experiments with soluble RGD peptides, the cells were incubated in 1 mL of cell culture media containing 200 μg of RGDS peptides during 20 min on plastic and then transferred to the polymer gels. To evaluate proliferation, total double-stranded DNA content was determined by using the PicoGreen assay as previously reported.
Immunostaining. […]

SMILES: CC(=O)O[C@H]1C(=O)[C@@]2(C)[C@H]([C@H](OC(=O)c3ccccc3)[C@]3(O)C[C@H](OC(=O)[C@H](O)[C@@H](NC(=O)c4ccccc4)c4ccccc4)C(C)=C1C3(C)C)[C@]1(OC(C)=O)CO[C@@H]1C[C@@H]2O [Taxol]
- cell viability after Taxol treatment [1]: did not affect cell viability
- hMSCs commitment after Taxol treatment ([2]; 50 nM): decrease in hMSCs commitment

SMILES: Cc1ccc2c(c1)C(=O)C1(O)CCN(c3ccccc3)C1=N2 (centres unmarked) [blebbistatin]
- STRO-1 in encapsulated cells in presence of blebbistatin ([2]; 50 μM, all the polymer gels): high levels of STRO-1
- hMSCs commitment in presence of blebbistatin ([2]; 50 μM, all the polymer gels): inhibited the hMSCs commitment

SMILES: C=C1[C@@H](C)[C@H]2[C@H](Cc3ccccc3)NC(=O)[C@]23[C@H](OC(C)=O)/C=C/[C@@](C)(O)C(=O)[C@@H](C)C/C=C/[C@H]3[C@@H]1O [cytochalasin-D]
- hMSCs commitment after cytochalasin-D treatment ([2]; 1 μM, towards both osteogenesis and adipogenesis): overall decreased commitment
